A word on the IC50: it is the concentration needed to halve the response being measured.

The subject of one assay is Aβ42 production. In words: Measurement of amyloid β production inhibition rate using primary nerve cell. It is filed as cell-based. As to conditions: Rattus norvegicus, 72 h, primary nerve cells from cerebral cortex of SD rat fetus; cultured 3 days with compound; sandwich ELISA BNT77-BC05 of culture supernatant; read-out: Aβ42 production inhibitory activity IC50. As to the method:
(1) Measurement of Amyloid β Production Inhibition Rate Using Primary Nerve Cell
The primary nerve cells were collected from the cerebral cortex of rat fetus (CLEA Japan, Inc.: SD rat, fetal life 17 days of age), and suspended in a neurobasal medium containing B27 supplement, L-glutamine, penicillin-streptomycin (manufactured by Invitrogen) at 500,000 cells/mL. Then, the suspension was seeded in poly L-lysine-coated 96 well plate (manufactured by SUMITOMO BAKELITE) by 100 μL, and cultured at 37° C., 5% CO2 for 7 days. The medium was completely removed, and a new neurobasal medium was added at 75 μL/well. Thereto was added (75 μL/well) a neurobasal medium supplemented with a 2-fold measurement concentration of an evaluation target compound, and the cells were cultured for 3 days. The culture supernatant was collected from each well, diluted as appropriate, applied to sandwich ELISA between BNT77 antibody-BA27 antibody (for Aβ40) and sandwich ELISA between BNT77 antibody-BC05 antibody (for Aβ42), and the amounts of Aβ40 and Aβ42 were measured.
The amyloid β production inhibition rate (%) of the compound was calculated by the following formula.
(1−(amyloid β production amount with addition of compound)/(amyloid β production amount without addition of compound))×100
(In general: In an ELISA, binding on a coated surface is turned into a signal by an enzyme label.)
`COc1cc(-c2nnc3n2CCCC3c2ccc(F)cc2C(F)(F)F)ccc1-c1cnc(C)o1` (centres unmarked) [Example 28, 8-[4-fluoro-2-(trifluoromethyl)phenyl]-3-[3-methoxy-4-(2-methyl-1,3-oxazol-5-yl)phenyl]-5,6,7,8-tetrahydro[1,2,4]triazolo[4,3-a]pyridine]: the IC50 was determined as 200 nM. Take `COc1cc(-c2nnc3n2CCC[C@@H]3c2ccc(Cl)cc2C(F)(F)F)ccc1-c1cnc(C)o1` [Example 34, (R)-(+)-8-[4-chloro-2-(trifluoromethyl)phenyl]-3-[3-methoxy-4-(2-methyl-1,3-oxazol-5-yl)phenyl]-5,6,7,8-tetrahydro[1,2,4]triazolo[4,3-a]pyridine]: the IC50 turned out to be 42 nM. For the compound `COc1cc(-c2nnc3n2CCCCC3c2ccc(Cl)c(Cl)c2)ccc1-c1cnc(C)o1` (centres unmarked) [Example 15, 9-(3,4-dichlorophenyl)-3-[3-methoxy-4-(2-methyl-1,3-oxazol-5-yl)phenyl]-6,7,8,9-tetrahydro-5H-[1,2,4]triazolo[4,3-a]azepine], the IC50 was found to be 170 nM.

As to `COc1cc(-c2nc3n(n2)CCCC3c2ccccc2C(F)(F)F)ccc1-c1cnc(C)o1` (centres unmarked) [Example 12, 2-[3-methoxy-4-(2-methyl-1,3-oxazol-5-yl)phenyl]-8-[2-(trifluoromethyl)phenyl]-5,6,7,8-tetrahydro[1,2,4]triazolo[1,5-a]pyridine], the IC50 came out at 150 nM.

Take `COc1cc(-c2nnc3n2CCCC3c2ccccc2C(F)(F)F)ccc1-c1cnc(C)o1` (centres unmarked) [Example 8, 3-[3-methoxy-4-(2-methyl-1,3-oxazol-5-yl)phenyl]-8-[2-(trifluoromethyl)phenyl]-5,6,7,8-tetrahydro[1,2,4]triazolo[4,3-a]pyridine]: the IC50 is 88 nM. For the compound `COc1cc(-c2nnc3n2CCCC3Oc2ccc(Cl)c(Cl)c2)ccc1-c1cnc(C)o1` (centres unmarked) [Example 25, 8-(3,4-dichlorophenoxy)-3-[3-methoxy-4-(2-methyl-1,3-oxazol-5-yl)phenyl]-5,6,7,8-tetrahydro[1,2,4]triazolo[4,3-a]pyridine], the IC50 is 88 nM.

Still in this assay, the particulars now being: primary nerve cells from cerebral cortex of SD rat fetus; cultured 3 days with compound; sandwich ELISA BNT77-BC05 of culture supernatant; read-out: Aβ42 production inhibitory activity IC50.
As for `COc1cc(-c2nnc3n2CCCC3c2ccc(Cl)c(Cl)c2)ccc1-c1cnc(C)o1` (single isomer, unassigned; (+)) [Example 2, (+)-8-(3,4-dichlorophenyl)-3-[3-methoxy-4-(2-methyl-1,3-oxazol-5-yl)phenyl]-5,6,7,8-tetrahydro[1,2,4]triazolo[4,3-a]pyridine], the IC50 was found to be 34 nM. As to `COc1cc(-c2nnc3n2CCCC3c2ccc(Cl)c(Cl)c2)ccc1-c1cnc(C)o1` (centres unmarked) [Example 1, 8-(3,4-dichlorophenyl)-3-[3-methoxy-4-(2-methyl-1,3-oxazol-5-yl)phenyl]-5,6,7,8-tetrahydro[1,2,4]triazolo[4,3-a]pyridine], the IC50 was 90 nM.
